Measured values from ChEMBL document CHEMBL1133988 (Bioorg Med Chem Lett, 2001).
Converted amounts (≈) assume the structure as drawn.

Key:
[1] = Binding affinity towards histone deacetylase (HDAC) enzyme derived from chicken liver (CL) cells using [3H]11; set-up: species or system Gallus gallus
Eimeria tenella = experiment: In vitro antiprotozoal activity using […] bovine kidney host cells infected with Eimeria tenella; assay type: functional
Plasmodium falciparum = experiment: In vitro antiprotozoal activity against Plasmodium falciparum infected erythrocytes; assay type: functional, organism-based
Histone deacetylase = experiment: Inhibitory activity against histone deacetylase (HDAC) enzyme derived from partially purified extracts of human HeLa cells using [3H]11 as radioligand
[2] = Tested in vitro by mammalian antiproliferative functional assay using human HeLa cells or foreskin fibroblasts
[3] = Binding affinity towards HDAC enzyme derived from chicken liver (CL) cells; set-up: species or system Gallus gallus

IC50 (Plasmodium falciparum) [µg/mL]	IC50 (Histone deacetylase) [nM]	Structure (SMILES)	Ki [1] [nM]	MIC (Eimeria tenella) [µg/mL]	AP50 [2] [ng/mL]	Ki [3] [nM]
0.5 (≈ 0.797 µM)	91	CCC(=O)CCCCC[C@@H]1NC(=O)[C@H]2CCCCN2C(=O)[C@H]([C@@H](C)CC)NC(=O)[C@H](CC(=O)c2ccccc2[N+](=O)[O-])NC1=O	–	0.125 (≈ 0.199 µM)	–	–
0.777 (≈ 1.33 µM)	–	CCC(=O)CCCCC[C@@H]1NC(=O)[C@H]2CCCCN2C(=O)[C@H]([C@@H](C)CC)NC(=O)[C@@H](C(=O)Cc2ccccc2)NC1=O	–	0.5 (≈ 0.858 µM)	>10000	500
0.24 (≈ 0.377 µM)	–	CCC(=O)CCCCC[C@@H]1NC(=O)[C@H]2CCCCN2C(=O)[C@H]([C@@H](C)CC)NC(=O)[C@H](c2cn(CC)c3ccccc3c2=O)NC1=O	–	> 1	>10000	2000
0.04 (≈ 0.0627 µM)	–	CCC(=O)CCCCC[C@@H]1NC(=O)[C@H]2CCCCN2C(=O)[C@H]([C@@H](C)CC)NC(=O)[C@H](c2cn(OC)c3ccccc3c2=O)NC1=O	–	0.25 (≈ 0.392 µM)	10000	1500
0.025 (≈ 0.0372 µM)	–	CCC(=O)CCCCC[C@@H]1NC(=O)[C@H]2CCCCN2C(=O)[C@H]([C@@H](C)CC)NC(=O)[C@H](Cc2c(Br)[nH]c3ccccc23)NC1=O	3	0.015 (≈ 0.0223 µM)	–	–
0.1 (≈ 0.138 µM)	–	CCC(=O)CCCCC[C@@H]1NC(=O)[C@H]2CCCCN2C(=O)[C@H]([C@@H](C)CC)NC(=O)[C@H](Cc2c(-c3ccc4c(ccn4C)c3)[nH]c3ccccc23)NC1=O	5	0.062 (≈ 0.0858 µM)	–	–
> 1	–	CCC(=O)CCCCC[C@@H]1NC(=O)[C@H]2CCCCN2C(=O)[C@H]([C@@H](C)CC)NC(=O)[C@H](Cc2cn(CC(=O)O)c3ccccc23)NC1=O	80	> 1	–	–
0.85 (≈ 1.42 µM)	–	CCC(=O)CCCCC[C@@H]1NC(=O)[C@H]2CCCCN2C(=O)[C@H]([C@@H](C)CC)NC(=O)[C@H](CC(=O)Cc2ccccc2)NC1=O	–	> 1	>10000	2000
0.7 (≈ 1.04 µM)	4	CCC(=O)CCCCC[C@@H]1NC(=O)[C@H]2CCCCN2C(=O)[C@H]([C@@H](C)CC)NC(=O)[C@H](Cc2c(-c3ccccc3)[nH]c3ccccc23)NC1=O	–	> 1	–	–
0.25 (≈ 0.343 µM)	0.2	CCC(=O)CCCCC[C@@H]1NC(=O)[C@H]2CCCCN2C(=O)[C@H]([C@@H](C)CC)NC(=O)[C@H](Cc2c(-c3cc(OC)cc(OC)c3)[nH]c3ccccc23)NC1=O	–	0.125 (≈ 0.171 µM)	–	–
0.55 (≈ 0.783 µM)	–	CCC(=O)CCCCC[C@@H]1NC(=O)[C@H]2CCCCN2C(=O)[C@H]([C@@H](C)CC)NC(=O)[C@H](Cc2cn(OC)c3ccc(Br)cc23)NC1=O	60	0.5 (≈ 0.712 µM)	–	–
0.035 (≈ 0.0517 µM)	0.2	CCC(=O)CCCCC[C@@H]1NC(=O)[C@H]2CCCCN2C(=O)[C@H]([C@@H](C)CC)NC(=O)[C@H](Cc2cn(CN3CCCC3)c3ccccc23)NC1=O	–	0.031 (≈ 0.0458 µM)	–	–
0.1 (≈ 0.157 µM)	1.3	CCC(=O)CCCCC[C@@H]1NC(=O)[C@H]2CCCCN2C(=O)[C@H]([C@@H](C)CC)NC(=O)[C@H](Cc2cn(CCN)c3ccccc23)NC1=O	–	> 1	–	–
0.18 (≈ 0.289 µM)	–	CCC(=O)CCCCC[C@@H]1NC(=O)[C@H]2CCCCN2C(=O)[C@H]([C@@H](C)CC)NC(=O)[C@H](Cc2cn(CC)c3ccccc23)NC1=O	10	0.05 (≈ 0.0804 µM)	–	–
0.02 (≈ 0.0329 µM)	–	CCC(=O)CCCCC[C@@H]1NC(=O)[C@H]2CCCCN2C(=O)[C@H]([C@@H](C)CC)NC(=O)[C@H](Cc2cn(C)c3ccccc23)NC1=O	5	0.125 (≈ 0.206 µM)	–	–

Second part, the compound before the results:

Structure (SMILES)	IC50 (Plasmodium falciparum) [µg/mL]	IC50 (Histone deacetylase) [nM]	Ki [1] [nM]	MIC (Eimeria tenella) [µg/mL]	AP50 [2] [ng/mL]	Ki [3] [nM]
CCC(=O)CCCCC[C@@H]1NC(=O)[C@H]2CCCCN2C(=O)[C@H]([C@@H](C)CC)NC(=O)[C@H](C(=O)c2c[nH]c3ccccc23)NC1=O	0.016 (≈ 0.0263 µM)	–	12	0.125 (≈ 0.206 µM)	–	–
CCC(=O)CCCCC[C@@H]1NC(=O)[C@H]2CCCCN2C(=O)[C@H]([C@@H](C)CC)NC(=O)[C@@H](c2cnc3ccccc3c2O)NC1=O	0.055 (≈ 0.0905 µM)	–	–	> 1	>10000	500
CCC(=O)CCCCC[C@@H]1NC(=O)[C@H]2CCCCN2C(=O)[C@H]([C@@H](C)CC)NC(=O)[C@H](c2cnc3ccccc3c2O)NC1=O	0.04 (≈ 0.0658 µM)	–	–	> 1	>10000	1000
CCC(=O)CCCCC[C@@H]1NC(=O)[C@H]2CCCCN2C(=O)[C@H]([C@@H](C)CC)NC(=O)[C@H](CCOc2ccccc2)NC1=O	–	34	–	0.25 (≈ 0.428 µM)	1450	–
CCC(=O)CCCCC[C@@H]1NC(=O)[C@H]2CCCCN2C(=O)[C@H]([C@@H](C)CC)NC(=O)[C@@H](C(=O)c2ccc3c(ccn3C)c2)NC1=O	0.015 (≈ 0.0241 µM)	–	20	0.05 (≈ 0.0804 µM)	–	–
CCC(=O)CCCCC[C@@H]1NC(=O)[C@H]2CCCCN2C(=O)[C@H]([C@@H](C)CC)NC(=O)[C@@H](C(=O)c2c[nH]c3ccccc23)NC1=O	0.07 (≈ 0.115 µM)	–	30	0.125 (≈ 0.206 µM)	–	–
CCC(=O)CCCCC[C@@H]1NC(=O)[C@H]2CCCCN2C(=O)[C@H]([C@@H](C)CC)NC(=O)[C@H](CC(=O)C(C)(C)C)NC1=O	0.775 (≈ 1.38 µM)	–	–	> 1	>10000	2000
CCC(=O)CCCCC[C@@H]1NC(=O)[C@H]2CCCCN2C(=O)[C@H]([C@@H](C)CC)NC(=O)[C@H](c2cnc3ccccc3c2N2CCCCC2)NC1=O [listing 1 of 2 here]	0.055 (≈ 0.0815 µM)	13	–	–	–	100
CCC(=O)CCCCC[C@@H]1NC(=O)[C@H]2CCCCN2C(=O)[C@H]([C@@H](C)CC)NC(=O)[C@H](c2cnc3ccccc3c2N2CCCCC2)NC1=O [listing 2 of 2 here]	–	–	–	0.125 (≈ 0.185 µM)	2500	–
CCC(=O)CCCCC[C@@H]1NC(=O)[C@H]2CCCCN2C(=O)[C@H]([C@@H](C)CC)NC(=O)[C@H](c2cnc3ccccc3c2Cl)NC1=O [listing 1 of 2 here]	0.225 (≈ 0.359 µM)	67	–	–	–	300
CCC(=O)CCCCC[C@@H]1NC(=O)[C@H]2CCCCN2C(=O)[C@H]([C@@H](C)CC)NC(=O)[C@H](c2cnc3ccccc3c2Cl)NC1=O [listing 2 of 2 here]	–	–	–	0.2 (≈ 0.319 µM)	10000	–
CCC(=O)CCCCC[C@@H]1NC(=O)[C@H]2CCCCN2C(=O)[C@H]([C@@H](C)CC)NC(=O)[C@H](CC2CN(OC)c3ccc(Br)cc32)NC1=O (stereo not given in full)	> 1	–	4500	0.1 (≈ 0.142 µM)	–	–
CCCCCCCCCCC(=O)C[C@@H]1NC(=O)[C@H](CCCCCC(=O)CC)NC(=O)[C@H]2CCCCN2C(=O)[C@H]([C@@H](C)CC)NC1=O	> 1	–	–	> 1	>10000	> 1000
CCC(=O)CCCCC[C@@H]1NC(=O)[C@H]2CCCCN2C(=O)[C@H]([C@@H](C)CC)NC(=O)[C@H](Cc2c[nH]c3ccccc23)NC1=O	0.035 (≈ 0.0589 µM)	2	–	0.031 (≈ 0.0522 µM)	–	–
CCCn1cc(C(=O)[C@H]2NC(=O)[C@H](CCCCCC(=O)CC)NC(=O)[C@H]3CCCCN3C(=O)[C@H]([C@@H](C)CC)NC2=O)c2ccccc21	0.15 (≈ 0.231 µM)	15	–	0.125 (≈ 0.192 µM)	–	–
CCC(=O)CCCCC[C@@H]1NC(=O)[C@H]2CCCCN2C(=O)[C@H]([C@@H](C)CC)NC(=O)[C@H](Cc2cn(OC)c3ccccc23)NC1=O [APICIDIN]	0.058 (≈ 0.093 µM)	–	–	0.094 (≈ 0.151 µM)	89	4
